In article PMC6151531, “Development of a Non-Hydroxamate Dual Matrix Metalloproteinase (MMP)-7/-13 Inhibitor” (Molecules : A Journal of Synthetic Chemistry and Natural …, 2017):
Several values for one entry are separate records, joined by “and”; a condition that tells them apart may be missing. Equal entries are not always repeated. Where two headings read alike, the source gives them in different places. Each block holds one compound with its values, some of them ahead of it.

Key:
MMP-7 [1] = biological target: T1, MMP-7 (Homo sapiens, UniProt P09237); settings: cited from earlier work
T1 sequence (P09237 95-267): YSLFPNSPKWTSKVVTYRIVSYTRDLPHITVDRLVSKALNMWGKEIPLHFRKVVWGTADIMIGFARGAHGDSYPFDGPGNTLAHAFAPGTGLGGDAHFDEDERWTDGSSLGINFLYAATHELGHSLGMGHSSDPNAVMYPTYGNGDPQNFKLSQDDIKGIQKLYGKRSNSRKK

MMP-13 = MMP-13 (Homo sapiens, UniProt P45452); assay: MMP-13 FRET peptide enzyme assay (single dose 10 μM and IC50); type: biochemical; settings: for activity at 10 µM: remaining enzyme activity at 10 μM inhibitor concentration; for activity at 10 µM / IC50: measured in duplicate
MMP-3 [2] = biological target: T2, MMP-3 (Homo sapiens, UniProt P08254); settings: 10 µM inhibitor concentration; cited from earlier work
T2 sequence (P08254 100-477): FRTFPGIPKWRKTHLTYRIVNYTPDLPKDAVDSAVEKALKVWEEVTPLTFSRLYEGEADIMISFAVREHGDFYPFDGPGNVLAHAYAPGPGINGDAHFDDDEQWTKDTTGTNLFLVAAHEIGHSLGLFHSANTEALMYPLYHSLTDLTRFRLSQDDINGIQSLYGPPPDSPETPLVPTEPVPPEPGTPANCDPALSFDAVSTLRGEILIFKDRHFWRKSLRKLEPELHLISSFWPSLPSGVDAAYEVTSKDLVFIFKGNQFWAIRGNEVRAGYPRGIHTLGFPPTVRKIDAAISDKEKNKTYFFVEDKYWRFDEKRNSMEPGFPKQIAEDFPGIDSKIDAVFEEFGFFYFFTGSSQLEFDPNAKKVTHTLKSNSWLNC

MMP-1 [3] = biological target: T3, MMP-1 (Homo sapiens, UniProt P03956); settings: 10 µM inhibitor concentration; cited from earlier work
T3 sequence (P03956 100-469): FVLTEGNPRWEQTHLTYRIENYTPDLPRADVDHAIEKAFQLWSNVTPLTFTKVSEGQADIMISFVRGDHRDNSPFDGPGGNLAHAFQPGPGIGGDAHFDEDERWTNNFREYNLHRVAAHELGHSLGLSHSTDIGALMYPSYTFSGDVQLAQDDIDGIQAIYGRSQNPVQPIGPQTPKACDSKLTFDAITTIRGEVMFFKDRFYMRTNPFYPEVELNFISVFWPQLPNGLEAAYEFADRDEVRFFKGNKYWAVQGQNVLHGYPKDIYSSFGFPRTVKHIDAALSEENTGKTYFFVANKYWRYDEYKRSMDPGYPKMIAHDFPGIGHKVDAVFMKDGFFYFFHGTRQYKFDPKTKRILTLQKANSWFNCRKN

MMP-12 [4] = biological target: T4, MMP-12 (Homo sapiens, UniProt P39900); settings: 10 µM inhibitor concentration; cited from earlier work
T4 sequence (P39900 106-470): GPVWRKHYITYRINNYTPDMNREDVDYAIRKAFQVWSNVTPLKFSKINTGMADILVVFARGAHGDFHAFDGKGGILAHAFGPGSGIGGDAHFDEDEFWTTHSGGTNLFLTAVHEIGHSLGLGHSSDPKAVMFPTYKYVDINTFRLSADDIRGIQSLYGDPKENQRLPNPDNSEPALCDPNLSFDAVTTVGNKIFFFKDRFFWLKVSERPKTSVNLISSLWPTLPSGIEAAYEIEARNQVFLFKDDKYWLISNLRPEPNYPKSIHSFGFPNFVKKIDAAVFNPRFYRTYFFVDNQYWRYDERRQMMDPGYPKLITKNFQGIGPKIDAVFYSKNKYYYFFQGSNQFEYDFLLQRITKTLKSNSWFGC

MMP-7 [5] = biological target: T1, MMP-7; settings: 10 µM inhibitor concentration; cited from earlier work
MMP-2 [6] = biological target: T5, MMP-2 (Homo sapiens, UniProt P08253); settings: 10 µM inhibitor concentration; cited from earlier work
T5 sequence (P08253 110-660): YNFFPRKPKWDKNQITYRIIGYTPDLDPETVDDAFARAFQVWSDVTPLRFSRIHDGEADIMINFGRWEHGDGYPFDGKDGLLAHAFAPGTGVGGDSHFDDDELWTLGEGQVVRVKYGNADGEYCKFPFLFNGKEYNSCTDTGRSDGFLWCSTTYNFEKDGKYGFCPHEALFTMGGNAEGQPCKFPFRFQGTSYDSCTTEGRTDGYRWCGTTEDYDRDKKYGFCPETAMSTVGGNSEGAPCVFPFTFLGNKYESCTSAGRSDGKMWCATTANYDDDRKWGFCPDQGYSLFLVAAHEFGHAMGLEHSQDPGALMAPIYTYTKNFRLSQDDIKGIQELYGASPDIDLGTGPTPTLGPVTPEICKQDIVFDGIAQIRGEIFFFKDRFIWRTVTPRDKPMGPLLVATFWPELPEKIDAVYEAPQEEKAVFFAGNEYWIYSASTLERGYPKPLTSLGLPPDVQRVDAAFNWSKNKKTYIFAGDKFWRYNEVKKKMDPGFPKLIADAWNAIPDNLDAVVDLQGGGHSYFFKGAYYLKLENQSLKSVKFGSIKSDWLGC

MMP-9 [7] = biological target: T6, MMP-9 (Homo sapiens, UniProt P14780); settings: 10 µM inhibitor concentration; cited from earlier work
T6 sequence (P14780 94-707): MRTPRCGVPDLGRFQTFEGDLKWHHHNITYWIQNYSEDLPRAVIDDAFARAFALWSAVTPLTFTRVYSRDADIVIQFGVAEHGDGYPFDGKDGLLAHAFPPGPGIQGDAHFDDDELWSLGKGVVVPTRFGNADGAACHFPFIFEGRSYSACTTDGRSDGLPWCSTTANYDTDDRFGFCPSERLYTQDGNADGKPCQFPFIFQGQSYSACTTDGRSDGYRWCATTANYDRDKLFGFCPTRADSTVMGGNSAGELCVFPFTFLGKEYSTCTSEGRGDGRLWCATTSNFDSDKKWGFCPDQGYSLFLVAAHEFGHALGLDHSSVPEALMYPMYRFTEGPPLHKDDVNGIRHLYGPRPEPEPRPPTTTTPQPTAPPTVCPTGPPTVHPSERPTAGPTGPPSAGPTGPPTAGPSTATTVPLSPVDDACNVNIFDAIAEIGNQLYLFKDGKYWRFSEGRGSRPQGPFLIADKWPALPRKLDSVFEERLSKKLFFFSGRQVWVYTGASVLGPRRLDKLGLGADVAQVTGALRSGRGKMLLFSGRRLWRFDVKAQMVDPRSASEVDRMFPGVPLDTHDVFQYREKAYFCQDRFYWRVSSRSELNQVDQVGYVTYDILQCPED

MMP-7 [8] = biological target: T1, MMP-7; assay: MMP-7 FRET peptide enzyme assay (single dose 10 μM and IC50); settings: for IC50: IC50 MMP-7, measured in duplicate; for activity at 10 µM: read-out: % Activity MMP-7
MMP-14 [9] = biological target: T7, MMP-14 (Homo sapiens, UniProt P50281); settings: 10 µM inhibitor concentration; cited from earlier work
MMP-8 [10] = biological target: T8, MMP-8 (Homo sapiens, UniProt P22894); settings: 10 µM inhibitor concentration; cited from earlier work
T8 sequence (P22894 101-467): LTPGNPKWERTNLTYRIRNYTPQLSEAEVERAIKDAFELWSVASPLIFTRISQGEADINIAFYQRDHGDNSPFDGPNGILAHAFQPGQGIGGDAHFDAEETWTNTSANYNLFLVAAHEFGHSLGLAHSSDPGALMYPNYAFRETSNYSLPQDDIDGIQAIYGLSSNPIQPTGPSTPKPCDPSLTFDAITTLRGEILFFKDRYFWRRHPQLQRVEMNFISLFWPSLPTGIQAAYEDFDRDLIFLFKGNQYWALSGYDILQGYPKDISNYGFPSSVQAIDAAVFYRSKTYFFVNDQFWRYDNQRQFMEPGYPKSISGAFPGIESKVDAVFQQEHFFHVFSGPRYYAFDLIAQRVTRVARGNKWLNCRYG

MMP-3 [11] = biological target: T2, MMP-3; assay: MMP-3 single dose selectivity assay; settings: read-out: Remaining enzymatic activity MMP-3
MMP-8 [12] = biological target: T8, MMP-8; assay: MMP-8 single dose selectivity assay; settings: read-out: Remaining enzymatic activity MMP-8
MMP-9 [13] = biological target: T6, MMP-9; assay: MMP-9 single dose selectivity assay; settings: read-out: Remaining enzymatic activity MMP-9
MMP-14 [14] = biological target: T7, MMP-14; assay: MMP-14 single dose selectivity assay; settings: read-out: Remaining enzymatic activity MMP-14
MMP-1 [15] = biological target: T3, MMP-1; assay: MMP-1 single dose selectivity assay; settings: read-out: Remaining enzymatic activity MMP-1
MMP-12 [16] = biological target: T4, MMP-12; assay: MMP-12 single dose selectivity assay; settings: read-out: Remaining enzymatic activity MMP-12
MMP-2 [17] = biological target: T5, MMP-2; assay: MMP-2 single dose selectivity assay; settings: read-out: Remaining enzymatic activity MMP-2

Compound: O=C(O)C(Cc1c[nH]c2ccccc12)NS(=O)(=O)c1ccc(Cl)c(C(F)(F)F)c1 (stereo not shown) [Compound 3]
selectivity over MMP-1 (MMP-7 [1]; MMP-7 over MMP-1): 10 fold | selectivity over MMP-14 (MMP-7 [1]; MMP-7 over MMP-14): 10 fold | IC50 (MMP-7 [1]): 10000 nM

Compound: O=C(O)CCCCOc1ccc(CC(=O)Nc2ccc3c(c2)C(=O)N(Cc2ccc(F)cc2)C3=O)cc1 [Compound 5, 5-{4-[({2-[(4-Fluorophenyl)methyl]-1,3-dioxo-2,3-dihydro-1H-isoindol-5-yl}carbamoyl)methyl]-phenoxy}pentanoic acid]
selectivity for MMP-13 over MMP-7 (MMP-13; from IC50-values): > 2600 fold | Remaining enzymatic activity MMP-3 (MMP-3 [2]): 100% | Remaining enzymatic activity MMP-1 (MMP-1 [3]): 100% | Remaining enzymatic activity MMP-12 (MMP-12 [4]): 91% | Remaining enzymatic activity MMP-7 (MMP-7 [5]): 68% | Remaining enzymatic activity MMP-2 (MMP-2 [6]): 100% | Remaining enzymatic activity MMP-9 (MMP-9 [7]): 100% | IC50 (MMP-7 [8]): 15700 nM and 15600 nM | activity at 10 µM (MMP-7 [8]): 67.5 ± 2.6% | Remaining enzymatic activity MMP-14 (MMP-14 [9]): 100% | Remaining enzymatic activity MMP-8 (MMP-8 [10]): 97%

activity at 10 µM (MMP-13): 23.7 ± 3.3% | inhibition of MMP-7 (in words) (MMP-7 [8]; discussion of structure activity relationship): total loss of inhibition | activity at 10 µM (MMP-7 [8]): 100 ± 4.4%
Compound: CN1C(=O)c2ccc(NC(=O)Cc3ccc(OCCCCC(=O)O)cc3)cc2C1=O [Compound 14a, 5-(4-{[(2-Methyl-1,3-dioxo-2,3-dihydro-1H-isoindol-5-yl)carbamoyl]methyl}phenoxy)pentanoic acid]

activity at 10 µM (MMP-13): 58.7 ± 2.7% | activity at 10 µM (MMP-7 [8]): 89.9 ± 10%
Compound: O=C(O)COc1ccc(CC(=O)Nc2ccc3c(c2)C(=O)N(Cc2ccccc2)C3=O)cc1 [Compound 14b, 2-(4-{[(2-Benzyl-1,3-dioxo-2,3-dihydro-1H-isoindol-5-yl)carbamoyl]methyl}phenoxy)acetic acid]

activity at 10 µM (MMP-13): 35.8 ± 5.1% | activity at 10 µM (MMP-7 [8]): 93.1 ± 1.7%
Compound: O=C(O)CCOc1ccc(CC(=O)Nc2ccc3c(c2)C(=O)N(Cc2ccccc2)C3=O)cc1 [Compound 14c, 3-(4-{[(2-Benzyl-1,3-dioxo-2,3-dihydro-1H-isoindol-5-yl)carbamoyl]methyl}phenoxy)propanoic acid]

activity at 10 µM (MMP-13): 2.6 ± 1.3% | activity at 10 µM (MMP-7 [8]): 91.3 ± 0.4%
Compound: O=C(O)CCCOc1ccc(CC(=O)Nc2ccc3c(c2)C(=O)N(Cc2ccccc2)C3=O)cc1 [Compound 14d, 4-(4-{[(2-Benzyl-1,3-dioxo-2,3-dihydro-1H-isoindol-5-yl)carbamoyl]methyl}phenoxy)butanoic acid]

activity at 10 µM (MMP-7 [8]): 93.2 ± 3.3%
Compound: O=C(O)CCCCOc1ccc(CC(=O)Nc2ccc3c(c2)C(=O)N(Cc2ccccc2)C3=O)cc1 [Compound 14e, 5-(4-{[(2-Benzyl-1,3-dioxo-2,3-dihydro-1H-isoindol-5-yl)carbamoyl]methyl}phenoxy)pentanoic acid]

activity at 10 µM (MMP-13): 2.5 ± 0.1% | activity at 10 µM (MMP-7 [8]): 59.4 ± 0.2%
Compound: O=C(O)CCCCCOc1ccc(CC(=O)Nc2ccc3c(c2)C(=O)N(Cc2ccccc2)C3=O)cc1 [Compound 14f, 6-(4-{[(2-Benzyl-1,3-dioxo-2,3-dihydro-1H-isoindol-5-yl)carbamoyl]methyl}phenoxy)hexanoic acid]

IC50 (MMP-13): 150 ± 31 nM | activity at 10 µM (MMP-13): 1 ± 0.1% | activity at 10 µM (MMP-7 [8]): 53.8 ± 0.8%
Compound: O=C(O)CCCCCCOc1ccc(CC(=O)Nc2ccc3c(c2)C(=O)N(Cc2ccccc2)C3=O)cc1 [Compound 14g, 7-(4-{[(2-Benzyl-1,3-dioxo-2,3-dihydro-1H-isoindol-5-yl)carbamoyl]methyl}phenoxy)heptanoic acid]

IC50 (MMP-13): 1670 ± 429 nM | activity at 10 µM (MMP-13): 16 ± 0.14% | IC50 (MMP-7 [8]): 3180 ± 249 nM | activity at 10 µM (MMP-7 [8]): 25.9 ± 0.5%
Compound: O=C(O)CCCCCCCOc1ccc(CC(=O)Nc2ccc3c(c2)C(=O)N(Cc2ccccc2)C3=O)cc1 [Compound 14h, 8-(4-{[(2-Benzyl-1,3-dioxo-2,3-dihydro-1H-isoindol-5-yl)carbamoyl]methyl}phenoxy)octanoic acid]

remaining activity at 10 µM (MMP-3 [11]): 73% | remaining activity at 10 µM (MMP-8 [12]): 80% | remaining activity at 10 µM (MMP-9 [13]): 87% | IC50 (MMP-13): 1200 nM and 1250 nM | remaining activity at 10 µM (MMP-14 [14]): 91% | remaining activity at 10 µM (MMP-1 [15]): 100% | remaining activity at 10 µM (MMP-12 [16]): 97% | IC50 (MMP-7 [8]): 2200 nM and 2250 nM | remaining activity at 10 µM (MMP-2 [17]): 98%
Compound: O=C(O)CCCCCCCCOc1ccc(CC(=O)Nc2ccc3c(c2)C(=O)N(Cc2ccccc2)C3=O)cc1 [Compound 14i, 9-(4-{[(2-Benzyl-1,3-dioxo-2,3-dihydro-1H-isoindol-5-yl)carbamoyl]methyl}phenoxy)nonanoic acid]

IC50 (MMP-13): 7120 ± 940 nM | IC50 (MMP-7 [8]): 6200 ± 1850 nM
Compound: O=C(O)CCCCCCCCCOc1ccc(CC(=O)Nc2ccc3c(c2)C(=O)N(Cc2ccccc2)C3=O)cc1 [Compound 14j, 10-(4-{[(2-Benzyl-1,3-dioxo-2,3-dihydro-1H-isoindol-5-yl)carbamoyl]methyl}phenoxy)decanoic acid]

activity at 10 µM (MMP-13): 37 ± 0.2% | activity at 10 µM (MMP-7 [8]): 98 ± 7.3%
Compound: O=C(O)CCOc1ccc(CC(=O)Nc2ccc3c(c2)C(=O)N(Cc2ccc(F)cc2)C3=O)cc1 [Compound 14k, 3-{4-[({2-[(4-Fluorophenyl)methyl]-1,3-dioxo-2,3-dihydro-1H-isoindol-5-yl}carbamoyl)methyl]-phenoxy}propanoic acid]

IC50 (MMP-13): 361 ± 52 nM | activity at 10 µM (MMP-13): 3.6 ± 1.1% | activity at 10 µM (MMP-7 [8]): 85.1 ± 2.2%
Compound: O=C(O)CCCOc1ccc(CC(=O)Nc2ccc3c(c2)C(=O)N(Cc2ccc(F)cc2)C3=O)cc1 [Compound 14l, 4-{4-[({2-[(4-Fluorophenyl)methyl]-1,3-dioxo-2,3-dihydro-1H-isoindol-5-yl}carbamoyl)methyl]-phenoxy}butanoic acid]

activity at 10 µM (MMP-13): 1.2 ± 0.1% | activity at 10 µM (MMP-7 [8]): 69.2 ± 0.1%
Compound: O=C(O)CCCCCOc1ccc(CC(=O)Nc2ccc3c(c2)C(=O)N(Cc2ccc(F)cc2)C3=O)cc1 [Compound 14m, 6-{4-[({2-[(4-Fluorophenyl)methyl]-1,3-dioxo-2,3-dihydro-1H-isoindol-5-yl}carbamoyl)methyl]-phenoxy}hexanoic acid]

activity at 10 µM (MMP-13): 1.9 ± 0.5% | activity at 10 µM (MMP-7 [8]): 47.5 ± 5.1%
Compound: O=C(O)CCCCCCOc1ccc(CC(=O)Nc2ccc3c(c2)C(=O)N(Cc2ccc(F)cc2)C3=O)cc1 [Compound 14n, 7-{4-[({2-[(4-Fluorophenyl)methyl]-1,3-dioxo-2,3-dihydro-1H-isoindol-5-yl}carbamoyl)methyl]-phenoxy}heptanoic acid]

activity at 10 µM (MMP-13): 34.6 ± 2.3% | activity at 10 µM (MMP-7 [8]): 64.5 ± 3.7%
Compound: O=C(O)CCCCCCCOc1ccc(CC(=O)Nc2ccc3c(c2)C(=O)N(Cc2ccc(F)cc2)C3=O)cc1 [Compound 14o, 8-{4-[({2-[(4-Fluorophenyl)methyl]-1,3-dioxo-2,3-dihydro-1H-isoindol-5-yl}carbamoyl)methyl]-phenoxy}octanoic acid]
